From patent US20250032490A1, “THERAPEUTIC REGIMENS FOR TREATMENT OF PAROXYSMAL NOCTURNAL HEMOGLOBINURIA” (Achillion Pharmaceuticals, Inc., priority 2017, published 2025)

Assays:
[1] = tested on: C3 fragment deposition on rabbit erythrocytes; test: C3 fragment deposition on rabbit erythrocytes (flow cytometry); format: cell-based; conditions: Oryctolagus cuniculus, Erythrocyte; 20% C5-depleted normal human serum; read-out: IC50, inhibition of C3 fragment deposition on rabbit erythrocytes
Procedure: Rabbit erythrocytes, C5-depleted normal human serum (C5-Dpl NHS), gelatin veronal buffer (GVB) without Ca^++ and Mg (GVB^0), 100 mM MgCl2+100 mM EGTA (MgEGTA) were obtained from Complement Technology Inc. (Tyler, TX). GVB^0·MgEGTA was prepared by mixing GVB^0 and 100 mM MgEGTA in a 9:1 ratio. FITC-conjugated anti-C3c antibody (cat#ab4212) and Alexa Fluor® 647-conjugated anti human CD59 antibody (cat#: ab187769) were purchased from Abcam (Cambridge, MA).
Reactions were incubated at 37° C. for 15 minutes, the reactions were quenched by addition of EDTA at a final concentration of 20 mM. Cells were stained with a FITC-conjugated anti-C3c antibody at a dilution of 1:200 and C3 fragment deposition on the surface of rabbit erythrocytes was assessed by flow cytometry with BD Accuri C6 cytometer (BD Biosciences, San Jose, CA). Forward and side scatter parameters were used to gate intact erythrocytes. Controls included cells labeled with FITC-conjugated antibody isotype control. IC50 values from each experiment were determined by curve-fitting of experimental data (the % C3 fragment-positive cells at increasing concentrations of inhibitor) to the four-parameter sigmoidal dose-response equation using non-linear regression analysis (Prism Software, GraphPad, La Jolla, CA).

[2] = tested on: C3 fragment deposition on artificial PNH cells; test: C3 fragment deposition on artificial PNH cells (flow cytometry); format: cell-based; conditions: 32% acidified C5-depleted normal human serum; read-out: IC50, inhibition of C3 fragment deposition on artificial PNH cells
Procedure: C5-depleted normal human serum (C5-Dpl NHS), gelatin veronal buffer (GVB) without Ca^++ and Mg^++ (GVB^0), 100 mM MgCl2+100 mM EGTA (MgEGTA) were obtained from Complement Technology Inc. (Tyler, TX). GVB^0·MgEGTA was prepared by mixing GVB^0 and 100 mM MgEGTA in a 9:1 ratio. FITC-conjugated anti-C3c antibody (cat #ab4212) and Alexa Fluor® 647-conjugated anti human CD59 antibody (cat #:ab187769) were purchased from Abcam (Cambridge, MA). […] Ferrone, and F. Mercuriali, The Action of Two Sulfhydryl Compounds on Normal Human Red Cells. Relationship to Red Cells of Paroxysmal Nocturnal Hemoglobinuria. Blood, 1965. 25: p. 502-10). After AET treatment, artificial PNH erythrocytes were centrifuged, supernatant was aspirated and cells were thoroughly washed with phosphate buffered saline (PBS) 3 times followed by washing with GVB^0 buffer ([…]) for additional 3 times. […] C3 fragment deposition on the surface of the erythrocytes was assessed by flow cytometry with BD Accuri C6 cytometer (BD Biosciences, San Jose, CA). […] IC50 values from each experiment were determined by curve-fitting of experimental data (the % C3 fragment-positive cells at increasing concentrations of inhibitor) to the four-parameter sigmoidal dose-response equation using non-linear regression analysis (Prism Software, GraphPad, La Jolla, CA).

[3] = Phase 2 study in PNH subjects: hemoglobin levels; format: in vivo, human; conditions: Compound 1 100 mg TID + IV eculizumab
Procedure: (§1) The starting dose of compound 1 is based upon group assignment. The Group 1 dose is 100mg three times daily (TID). The Group 2 dose is 150 mg TID. The Group 3 dose is 200 mg TID. The Group 4 dose will receive the optimal dose determined from Groups 1-3.
(§2) All doses are taken approximately 15-30 minutes after completion of a meal or snack.
(§3) This will be followed by a long-term extension phase.
(§4) 2 subjects in the first dose level of 100 mg TID have been completed and data collected through 4 weeks. Data collected include lactate dehydrogenase (LDH) levels, hemoglobin levels, reticulocytes, PNH red blood cells (Type III) percentage, C3 Fragment Deposition percentage, and bilirubin levels and their changes from baseline.
Free hemoglobin is a pharmacodynamic marker that is measured from blood drawn on Day 1, Week 1, Week 2, and Week 4 (FIGS. 14A & 14B and Table 16). Low levels of hemoglobin is a sign of hemolytic anemia.

[4] = tested on: PNH Type III red blood cells; test: Phase 2 study in PNH subjects: PNH red blood cell (Type III) percentage; format: in vivo, human; conditions: Compound 1 100 mg TID + IV eculizumab
Procedure: as §1, §2, §3, §4
Measuring the percentage of PNH Type III red blood cells is a pharmacodynamic marker that is measured by flow cytometry, which provides information on cell size, shape, and percentage of a type of cell. This assay determines whether CD55 and CD59 are missing from the surface of red blood cells. These proteins help protect normal cells from hemolysis. PNH Type III cells are extremely sensitive to the complement system and hemolysis. PNH Type III cell percentage is measured from plasma drawn on Day 1, Week 2, and Week 4 (FIGS. 16A & 16B and Table 18).

[5] = tested on: rabbit erythrocytes; test: CAP-mediated hemolysis assay with rabbit erythrocytes; format: cell-based; conditions: Oryctolagus cuniculus, Erythrocyte; AP activity in vitro
[6] = subject 003-001, DAY 1 (baseline)
[7] = subject 003-002, DAY 1 (baseline)

SMILES: CC(=O)c1nn(CC(=O)N2C[C@H](F)C[C@H]2C(=O)Nc2cccc(Br)n2)c2ccc(-c3cnc(C)nc3)cc12 [Compound 1, (2S,4R)-1-(2-(3-acetyl-5-(2-methylpyrimidin-5-yl)-1H-indazol-1-yl)acetyl)-N-(6-bromopyridin-2-yl)-4-fluoropyrrolidine-2-carboxamide]
- IC50 [1]: 96 ± 21 nM
- IC50 [2]: 27 nM
- HEMOGLOBIN Observed [3, 6]: 5.0 g/dL
- HEMOGLOBIN CFB (change from baseline) ([3]; subject 003-001, DAY 1): 0.0 g/dL
- HEMOGLOBIN CFB (change from baseline) ([3]; subject 003-001, WEEK 1): 1.1 g/dL
- HEMOGLOBIN Observed ([3]; subject 003-001, WEEK 1): 6.1 g/dL
- HEMOGLOBIN CFB (change from baseline) ([3]; subject 003-001, WEEK 2): 2.0 g/dL
- HEMOGLOBIN Observed ([3]; subject 003-001, WEEK 2): 7.0 g/dL
- HEMOGLOBIN CFB (change from baseline) ([3]; subject 003-001, WEEK 4): 2.6 g/dL
- HEMOGLOBIN Observed ([3]; subject 003-001, WEEK 4): 7.6 g/dL
- HEMOGLOBIN Observed [3, 7]: 9.8 g/dL
- HEMOGLOBIN CFB (change from baseline) ([3]; subject 003-002, DAY 1): 0.0 g/dL
- HEMOGLOBIN CFB (change from baseline) ([3]; subject 003-002, WEEK 1): 1.4 g/dL
- HEMOGLOBIN Observed ([3]; subject 003-002, WEEK 1): 11.2 g/dL
- HEMOGLOBIN CFB (change from baseline) ([3]; subject 003-002, WEEK 2): 1.8 g/dL
- HEMOGLOBIN Observed ([3]; subject 003-002, WEEK 2): 11.6 g/dL
- HEMOGLOBIN CFB (change from baseline) ([3]; subject 003-002, WEEK 4): 2.9 g/dL
- HEMOGLOBIN Observed ([3]; subject 003-002, WEEK 4): 12.7 g/dL
- PNH RBC (TYPE III) Observed [4, 6]: 41%
- PNH RBC (TYPE III) CFB (change from baseline) ([4]; subject 003-001, DAY 1): 0%
- PNH RBC (TYPE III) CFB (change from baseline) ([4]; subject 003-001, WEEK 2): 21%
- PNH RBC (TYPE III) Observed ([4]; subject 003-001, WEEK 2): 62%
- PNH RBC (TYPE III) CFB (change from baseline) ([4]; subject 003-001, WEEK 4): 29%
- PNH RBC (TYPE III) Observed ([4]; subject 003-001, WEEK 4): 70%
- PNH RBC (TYPE III) Observed [4, 7]: 50%
- PNH RBC (TYPE III) CFB (change from baseline) ([4]; subject 003-002, DAY 1): 0%
- PNH RBC (TYPE III) CFB (change from baseline) ([4]; subject 003-002, WEEK 2): 10%
- PNH RBC (TYPE III) Observed ([4]; subject 003-002, WEEK 2): 60%
- PNH RBC (TYPE III) CFB (change from baseline) ([4]; subject 003-002, WEEK 4): 18%
- PNH RBC (TYPE III) Observed ([4]; subject 003-002, WEEK 4): 68%
- IC50 [5]: 27 nM
